The target of assay [1] is T1, rat Mas receptor (Rattus norvegicus, UniProt P12526).
T1 construct: expressed in transfected cells; host or cells: HEK293 (ATCC CRL-1573)
T1 sequence (P12526 1-324): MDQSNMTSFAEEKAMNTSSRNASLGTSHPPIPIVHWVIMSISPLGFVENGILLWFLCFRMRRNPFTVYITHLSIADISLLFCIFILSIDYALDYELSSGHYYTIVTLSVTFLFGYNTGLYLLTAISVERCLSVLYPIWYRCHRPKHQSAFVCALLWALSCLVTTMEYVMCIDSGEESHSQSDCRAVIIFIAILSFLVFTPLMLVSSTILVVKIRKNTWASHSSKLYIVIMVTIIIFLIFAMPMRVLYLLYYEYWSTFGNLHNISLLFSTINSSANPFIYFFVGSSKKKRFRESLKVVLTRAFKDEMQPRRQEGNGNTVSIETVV
In words: cAMP Dynamic2 HTRF assay, HEK293 cells stably expressing rat Mas receptor. The class given is cell-based. The settings on record: forskolin stimulated cAMP, means ± SEM, NR = No Response, read-out: Gi/cAMP IC50. Here is the method:
cAMP accumulation in HEK293 cells stably expressing human or rat Mas receptors was determined by the 384 well cAMP Dynamic2 Homogenous Time-Resolved Fluorescence (HTRF®) assay (CisBio Cat#62AM4PEB) following the manufacturer's protocol. Briefly, cells were plated at 30,000 or 1000 cells per well in 5 μL stimulation buffer (PBS containing 500 μM IBMX and 0.1% bovine serum albumin), 5 μL of Mas compounds diluted in PBS were added to each well and serial diluted cAMP standards were also added to corresponding wells at this step. For detecting […] activities, 10 μM forskolin was included with the compounds for a final concentration of 5 μM at the stimulation step. Following 1 h stimulation at room temperature, d2-labeled cAMP and anti-cAMP cryptate conjugate diluted in detection buffer (included in the kit) were added to cells sequentially at 5 μl per well. The plates were incubated further for 1 h at room temperature. Ratiometic measurements of fluorescence emission at 665 nm and 620 nm were obtained by Pherastar fluorometer (BMG Labtech) and cAMP levels in each well were calculated according to the standard curves on each plate. IC50 values were obtained by fitting data to a nonlinear curve-fitting program (GraphPad Software, Inc., La Jolla Calif.).

In the next assay the test system is control HEK293 cells. In words: HTRF IP1 assay in control HEK293 cells. The settings on record: IP assay. In kind it is cell-based. An excerpt:
Human and rat Mas receptors were either transiently or stably expressed in HEK293 cells. For transient transfections, human or rat Mas in pHM6 vector were transfected into HEK293 cells using Lipofectamine® (Invitrogen #18324-012). HEK293 cells transfected with empty pHM6 vector were used as a control. For generation of stable cell lines, cDNA expression plasmids encoding human or rat Mas genes and the neo^r gene were transfected into HEK293 cells (ATCC# CRL-1573) using Lipofectamine® (Invitrogen) according to the manufacturer's instructions. Stable receptor expressing pools were then generated over 3 weeks by standard techniques in the presence of 500 μg/mL Geneticin® (Gibco). Individual receptor stable pools were dilution cloned using standard techniques and clones were comparatively evaluated in inositol phosphate accumulation assays. Preferred clones were banked and cultured as needed. HEK293 cells were used as controls. The 384 well IP-One HTRF® Assay (Cisbio #62P1APEJ) was performed as described by the manufacturer's protocol. Cells were plated in at 100,000 cells per well in 15 μL DMEM (Gibco #11960) and incubated in a CO2 incubator at 37° C. for 2 h. […] IP1 levels in each well were calculated according to the standard curves on each plate. […]

Another assay concerns the target T2, human Mas receptor (Homo sapiens, UniProt P04201).
T2 construct: expressed in transfected cells; host or cells: HEK293 (ATCC CRL-1573)
T2 sequence (P04201 1-325): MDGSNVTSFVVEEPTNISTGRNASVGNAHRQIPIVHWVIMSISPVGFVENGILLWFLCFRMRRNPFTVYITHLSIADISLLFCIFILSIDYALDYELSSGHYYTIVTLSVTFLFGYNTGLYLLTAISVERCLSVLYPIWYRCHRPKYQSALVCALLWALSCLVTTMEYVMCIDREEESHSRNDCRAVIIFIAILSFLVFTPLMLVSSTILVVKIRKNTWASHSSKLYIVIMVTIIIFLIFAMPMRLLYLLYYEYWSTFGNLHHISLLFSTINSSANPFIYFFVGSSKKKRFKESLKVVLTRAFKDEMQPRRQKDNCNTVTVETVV
In words: HTRF IP1 assay, HEK293 cells expressing human Mas receptor. In kind it is cell-based. Background: TR-FRET usually uses a lanthanide donor and a delayed reading to cut background.

Assay [2] deals with T1, rat Mas receptor. In words: HTRF IP1 assay, HEK293 cells expressing rat Mas receptor. In kind it is cell-based. An excerpt: Human and rat Mas receptors were either transiently or stably expressed in HEK293 cells. For transient transfections, human or rat Mas in pHM6 vector were transfected into HEK293 cells using Lipofectamine® (Invitrogen #18324-012). HEK293 cells transfected with empty pHM6 vector were used as a control. For generation of stable cell lines, cDNA expression plasmids encoding human or rat Mas genes and the neo^r gene were transfected into HEK293 cells (ATCC# CRL-1573) using Lipofectamine® (Invitrogen) according to the manufacturer's instructions. Stable receptor expressing pools were then generated over 3 weeks by standard techniques in the presence of 500 μg/mL Geneticin® (Gibco). Individual receptor stable pools were dilution cloned using standard techniques and clones were comparatively evaluated in inositol phosphate accumulation assays. Preferred clones were banked and cultured as needed. HEK293 cells were used as controls. The 384 well IP-One HTRF® Assay (Cisbio #62P1APEJ) was performed as described by the manufacturer's protocol. Cells were plated in at 100,000 cells per well in 15 μL DMEM (Gibco #11960) and incubated in a CO2 incubator at 37° C. for 2 h. Five μL of compounds diluted in 2× stimulation buffer plus 0.4% BSA (Sigma (#A3059) were added to each well and serial diluted IP1 standards (Cisbio #62IP1CDA) were also added to corresponding wells at this step. After the cells were incubated for 4 h in a CO2 incubator at 37° C., d2-labeled IP1 and cryptate-labeled anti-IP1 monoclonal antibody diluted in lysis buffer were added sequentially in 10 μL per well and the assay plates were kept in the dark at room temperature overnight. Ratiometric measurements of fluorescence emission at 665 nm and 620 nm were obtained using a Pherastar fluorometer (BMG Labtech). IP1 levels in each well were calculated according to the standard curves on each plate. IC50 values were obtained by fitting data to a nonlinear curve-fitting program (GraphPad Software, Inc., La Jolla Calif.).

Another assay concerns Male Sprague-Dawley rats. In words: Left kidney artery ischemia reperfusion injury model. The class given is in vivo, rat. The protocol: Rats were anesthetized with pentobarbital (70 mg/kg). Normal body temperature was maintained by placing the animals on heating pads until recovery from anesthesia. Following a midline abdominal incision, the left renal pedicle was localized and the renal artery and vein were dissected. An atraumatic microvascular clamp was placed, and the left renal artery was occluded for 45 minutes. After inspection for signs of ischemia, the wound was covered with PBS soaked cotton. After release of the clamp, restoration of blood-flow was inspected visually and the wound was closed with surgical staples and the animal was allowed to recover. 24 hours following the end of ischemia blood was collected and markers of kidney function, creatinine and blood urea nitrogen (BUN) were measured.
15 minutes prior to renal artery occlusion either vehicle (20% hydroxypropyl-β-cyclodextrin) or a loading dose of 6.26 mg/kg Mas inverse agonist (Compound 170) was administered i.v. followed by a i.v. maintenance dose of 1.64 mg/kg/hr lasting for 2 hours following removal of the renal artery clamp. A renoprotective positive control peptide, Atrial natriuretic peptide (ANP, 0.2 μg/kg/min), was administered by continuous i.v. infusion starting 15 minutes prior to renal artery occlusion and lasting for 2 hours following removal of the renal artery clamp, see FIG. 43 for protocol.

The mark [3] stands for this setting: 6.26 mg/kg loading + 1.64 mg/kg/hr i.v., 45 minutes occlusion, blood 24 hours after ischemia.

Two compounds from patent publication US20140309192A1, “MODULATORS OF THE G PROTEIN-COUPLED MAS RECEPTOR AND THE TREATMENT OF DISORDERS RELATED THERETO” (ARENA PHARMACEUTICALS, INC., priority 2011, published 2014) can be followed below.

Read-outs that look alike come from different tables or passages of the source.

`COc1cc([N+](=O)[O-])ccc1S(=O)(=O)N1CC(CN2CCN(c3ccccn3)CC2)C(c2cccc(F)c2)C1` (centres unmarked) [AR234960]: the IC50 at rat Mas receptor [1] worked out at 1.71 ± 0.011 µM; on human Mas receptor (IP assay, HEK293 cells stably expressing human Mas, 4 h, means ± SEM, read-out: Human IC50), 0.351 ± 0.055 µM; on rat Mas receptor [2] (IP assay, HEK293 cells stably expressing rat Mas, 4 h, means ± SEM, read-out: Rat IC50), 0.172 ± 0.009 µM. In addition, in the assay with control HEK293 cells, the “effects in control HEK293 cells” value was “There were detected effects”. Besides, at human Mas receptor (Table C, line under Human IC50), the “ligand activity in IP assay, human Mas” value is given as “(agonist)”. Further, the “ligand activity in IP assay, rat Mas” value on rat Mas receptor [2] (Table C, line under Rat IC50) is reported as “(agonist)”.
On to `NC(=O)[C@H](CO)NCc1ccc(C(=O)Nc2ccc(Cl)cc2N2CCN(CCC(F)(F)F)CC2)c(F)c1F` [Compound 170, (S)-4-((1-Amino-3-hydroxy-1-oxopropan-2-ylamino)methyl)-N-(4-chloro-2-(4-(3,3,3-trifluoropropyl)piperazin-1-yl)phenyl)-2,3-difluorobenzamide], for which, in the assay on Male Sprague-Dawley rats (setting [3]), the “kidney function as measured by blood creatinine” value was “improves kidney function” and the “kidney function as measured by blood urea nitrogen (BUN)” value is recorded as “improves kidney function”. The “degree of renal protection” value in the assay with Male Sprague-Dawley rats (compared with ANP 0.2 μg/kg/min) was “at the same activity compared to ANP”. For the same compound, the IC50 at human Mas receptor (HTRF IP1 assay, human Mas receptor (Table B.2), read-out: IC50) stood at 0.0156 µM. For the same compound, on rat Mas receptor [2] (HTRF IP1 assay, rat Mas receptor (Table B.1), read-out: IC50), the IC50 came out at 0.0214 µM.
